Among the data in patent publication US20250145594A1, “MODULATORS OF THE INTEGRATED STRESS PATHWAY” (Calico Life Sciences LLC, priority 2020, published 2025) are EC50 values, retold here.

Bounds are passed on as bounds.

The test system of this assay is ATF4 luciferase reporter in HEK293T cells. Put plainly: ATF4-Luc assay (in vitro model of VWMD). The settings on record: Homo sapiens, HEK-293T, 7 h, HEK293T cells carrying the ATF4 luciferase reporter, 1 μg/mL tunicamycin, One Glo luminescence. Type of assay: cell-based, human. The method in brief:
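Stable HEK293T line expressing firefly luciferase behind the human ATF4 5′-UTR, treated with 1 μg/mL tunicamycin plus compound for 7 hours. Luminescence read with One Glo; EC50 determined.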
(In general: Reporter assays use an easily measured gene product as a stand-in for the process of interest.)
On to `COc1ccc2nn(C34CCC(NC(=O)[C@H]5C[C@@H](O)c6cc(Cl)ccc6O5)(C3)C4)cc2c1` [Compound 652, (2R,4R)-6-chloro-4-hydroxy-N-[4-(5-methoxy-2H-indazol-2-yl)bicyclo[2.1.1]hexan-1-yl]-3,4-dihydro-2H-1-benzopyran-2-carboxamide], for which the EC50 was 10 to 50 nM.

As for `O=C(NC12CC(c3cc(OCCCOC(F)(F)F)ncn3)(C1)C2)[C@H]1C[C@@H](O)c2cc(Cl)c(F)cc2O1` [Compound 649, (2R,4R)-6-chloro-7-fluoro-4-hydroxy-N-(3-{6-[3-(trifluoromethoxy)propoxy]pyrimidin-4-yl}bicyclo[1.1.1]pentan-1-yl)-3,4-dihydro-2H-1-benzopyran-2-carboxamide], the EC50 was below 10 nM.

`O=C(NC12CC(n3cnc(C(=O)N4CCC[C@@H](OC(F)(F)F)C4)c3)(C1)C2)[C@H]1C[C@@H](O)c2cc(Cl)ccc2O1` [Compound 392, (2R,4R)-6-chloro-4-hydroxy-N-(3-{4-[(3R)-3-(trifluoromethoxy)piperidine-1-carbonyl]-1H-imidazol-1-yl}bicyclo[1.1.1]pentan-1-yl)-3,4-dihydro-2H-1-benzopyran-2-carboxamide]: the EC50 was 250 to 500 nM.

In the case of `O=C(NC12CC(c3ccc(C(=O)N4CC[C@H](OC(F)(F)F)C4)cn3)(C1)C2)[C@H]1C[C@@H](O)c2cc(Cl)ccc2O1` [Compound 534, (2R,4R)-6-chloro-4-hydroxy-N-(3-{5-[(3S)-3-(trifluoromethoxy)pyrrolidine-1-carbonyl]pyridin-2-yl}bicyclo[1.1.1]pentan-1-yl)-3,4-dihydro-2H-1-benzopyran-2-carboxamide], the EC50 lay in the range of 10 to 50 nM.

For `O=C(NC12CC(n3cc(OCCOC(F)(F)F)cn3)(C1)C2)[C@H]1C[C@H](O)c2cc(C(F)(F)F)c(F)cc2O1` [Compound 633, (2R,43)-7-fluoro-4-hydroxy-N-(3-{4-[2-(trifluoromethoxy)ethoxy]-1H-pyrazol-1-yl}bicyclo[1.1.1]pentan-1-yl)-6-(trifluoromethyl)-3,4-dihydro-2H-1-benzopyran-2-carboxamide], the EC50 is below 10 nM.

For the compound `COc1ccc2cn(C34CC(NC(=O)[C@H]5C[C@@H](O)c6cc(Cl)ccc6O5)(C3)C4)nc2c1` [Compound 500, (2R,4R)-6-chloro-4-hydroxy-N-[3-(6-methoxy-2H-indazol-2-yl)bicyclo[1.1.1]pentan-1-yl]-3,4-dihydro-2H-1-benzopyran-2-carboxamide], the half-maximal effective concentration (EC50) lay within 10 to 50 nM.

Consider `O=C(CO[C@H]1C[C@@H](OC(F)(F)F)C1)N[C@H]1C[C@H]2C[C@@H]1C[C@@H]2NC(=O)[C@H]1C[C@@H](O)c2cc(C(F)(F)F)c(F)cc2O1` [Compound 646, (2R,4R)-7-fluoro-4-hydroxy-N-[(1R,2S,4R,5S)-5-(2-{[(1s,3R)-3-(trifluoromethoxy)cyclobutyl]oxy}acetamido)bicyclo[2.2.1]heptan-2-yl]-6-(trifluoromethyl)-3,4-dihydro-2H-1-benzopyran-2-carboxamide], for which the EC50 is below 10 nM.

As to `O=C(NC12CC(n3cc(OCCOC(F)(F)F)cn3)(C1)C2)[C@@H]1CNc2cc(Cl)ccc2O1` [Compound 519, (2S)-6-chloro-N-(3-{4-[2-(trifluoromethoxy)ethoxy]-1H-pyrazol-1-yl}bicyclo[1.1.1]pentan-1-yl)-3,4-dihydro-2H-1,4-benzoxazine-2-carboxamide], the EC50 is 10 to 50 nM.

Consider `Cn1nc(C23CC(NC(=O)COc4ccc(Cl)c(F)c4)(C2)C3)cc1OC[C@H]1C[C@@H](OC(F)(F)F)C1` [Compound 387, 2-(4-chloro-3-fluorophenoxy)-N-[3-(1-methyl-5-{[cis-3-(trifluoromethoxy)cyclobutyl]methoxy}-1H-pyrazol-3-yl)bicyclo[1.1.1]pentan-1-yl]acetamide], for which the EC50 is 50 to 250 nM.

As to `O=C(NC12CC(n3cc(OCCOC(F)(F)F)cn3)(C1)C2)C1CNc2cc(C(F)(F)F)c(F)cc2O1` (stereo not drawn) [Compound 592, 7-fluoro-N-(3-{4-[2-(trifluoromethoxy)ethoxy]-1H-pyrazol-1-yl}bicyclo[1.1.1]pentan-1-yl)-6-(trifluoromethyl)-3,4-dihydro-2H-1,4-benzoxazine-2-carboxamide], the EC50 lay within 10 to 50 nM.

As for `O=C(CO[C@H]1C[C@@H](OC(F)(F)F)C1)NC12CC(NC(=O)[C@H]3CC(O)c4cc(Cl)ccc4O3)(C1)C2` (single isomer, unassigned) [Compound 293], the EC50 is below 10 nM.

`O=C(NC12CC(n3cc(N4CC[C@@H](OC(F)(F)F)C4)cn3)(C1)C2)[C@H]1C[C@@H](O)c2cc(Cl)c(F)cc2O1` [Compound 389, (2R,4R)-6-chloro-7-fluoro-4-hydroxy-N-(3-{4-[(3R)-3-(trifluoromethoxy)pyrrolidin-1-yl]-1H-pyrazol-1-yl}bicyclo[1.1.1]pentan-1-yl)-3,4-dihydro-2H-1-benzopyran-2-carboxamide]: the EC50 was below 10 nM.

As for `O=C(CO[C@H]1C[C@@H](OC(F)(F)F)C1)NC12CC(NC(=O)[C@H]3C[C@@H](O)c4cc(C(F)(F)F)ccc4O3)(C1)C2` [Compound 493, (2R,4R)-4-hydroxy-N-[3-(2-{[(1s,3S)-3-(trifluoromethoxy)cyclobutyl]oxy}acetamido)bicyclo[1.1.1]pentan-1-yl]-6-(trifluoromethyl)-3,4-dihydro-2H-1-benzopyran-2-carboxamide], the EC50 was below 10 nM.

Regarding `O=C(COc1ccc(Cl)c(F)c1)NC12CC(c3ccc(C(=O)N4CC(OC(F)(F)F)C4)nc3)(C1)C2` [Compound 605, 2-(4-chloro-3-fluorophenoxy)-N-(3-{6-[3-(trifluoromethoxy)azetidine-1-carbonyl]pyridin-3-yl}bicyclo[1.1.1]pentan-1-yl)acetamide], the EC50 was below 10 nM.

`O=C(NC12CC(n3cc(O[C@H]4C[C@H](OC(F)(F)F)C4)cn3)(C1)C2)[C@H]1C[C@@H](O)c2cc(Cl)ccc2O1` [Compound 587, (2R,4R)-6-chloro-4-hydroxy-N-[3-(4-{[(1r,3R)-3-(trifluoromethoxy)cyclobutyl]oxy}-1H-pyrazol-1-yl)bicyclo[1.1.1]pentan-1-yl]-3,4-dihydro-2H-1-benzopyran-2-carboxamide]: the EC50 is below 10 nM.

As for `O=C(NC12CC(n3cc(C(=O)N4CC(COC(F)(F)F)C4)cn3)(C1)C2)[C@H]1C[C@@H](O)c2cc(Cl)ccc2O1` [Compound 329, (2R,4R)-6-chloro-4-hydroxy-N-[3-(4-{3-[(trifluoromethoxy)methyl]azetidine-1-carbonyl)-1H-pyrazol-1-yl}bicyclo[1.1.1]pentan-1-yl]-3,4-dihydro-2H-1-benzopyran-2-carboxamide], the EC50 was below 10 nM.

For the compound `CCO[C@H]1CCN(C(=O)c2cnn(C34CC(NC(=O)[C@H]5C[C@@H](O)c6cc(Cl)ccc6O5)(C3)C4)c2)C1` [Compound 359, (2R,4R)-6-chloro-N-(3-{4-[(3S)-3-ethoxypyrrolidine-1-carbonyl]-1H-pyrazol-1-yl}bicyclo[1.1.1]pentan-1-yl)-4-hydroxy-3,4-dihydro-2H-1-benzopyran-2-carboxamide], the EC50 lay within 10 to 50 nM.

On to `O=C(NC12CC(n3cc(OCCOC(F)(F)F)cn3)(C1)C2)[C@H]1C[C@@H](O)c2cc(F)c(F)cc2O1` [Compound 429, (2R,4R)-6,7-difluoro-4-hydroxy-N-(3-{4-[2-(trifluoromethoxy)ethoxy]-1H-pyrazol-1-yl}bicyclo[1.1.1]pentan-1-yl)-3,4-dihydro-2H-1-benzopyran-2-carboxamide], for which the 50% effective concentration (EC50) was below 10 nM.

Take `O=C(NC12CC(n3cc(-c4ccc(C(F)F)cn4)cn3)(C1)C2)[C@H]1C[C@@H](O)c2cc(Cl)ccc2O1` [Compound 568, (2R,4R)-6-chloro-N-(3-{4-[5-(difluoromethyl)pyridin-2-yl]-1H-pyrazol-1-yl}bicyclo[1.1.1]pentan-1-yl)-4-hydroxy-3,4-dihydro-2H-1-benzopyran-2-carboxamide]: the EC50 was below 10 nM.

For the compound `O=C(N[C@H]1CC[C@H](n2cc(N3CC[C@@H](OC(F)(F)F)C3)cn2)CC1)[C@H]1C[C@@H](O)c2cc(Cl)c(F)cc2O1` [Compound 582, (2R,4R)-6-chloro-7-fluoro-4-hydroxy-N-[(1R,4R)-4-{4-[(3R)-3-(trifluoromethoxy)pyrrolidin-1-yl]-1H-pyrazol-1-yl}cyclohexyl]-3,4-dihydro-2H-1-benzopyran-2-carboxamide], the EC50 was 10 to 50 nM.

With `O=C(NC12CC(n3cc(-c4ccc(C(F)(F)F)cn4)cn3)(C1)C2)[C@@H]1C[C@@H](O)c2cc(C(F)(F)F)ccc2O1` [Compound 548, (2S,4R)-4-hydroxy-6-(trifluoromethyl)-N-(3-{4-[5-(trifluoromethyl)pyridin-2-yl]-1H-pyrazol-1-yl}bicyclo[1.1.1]pentan-1-yl)-3,4-dihydro-2H-1-benzopyran-2-carboxamide], the EC50 is below 10 nM.

On to `O=C(COc1ccc(Cl)c(F)c1)NC12CCC(c3nnc([C@H]4C[C@@H](OC(F)(F)F)C4)o3)(CC1)CC2O` (stereo partly drawn) [Compound 124, 2-(4-chloro-3-fluorophenoxy)-N-(2-hydroxy-4-{5-[(1s,3s)-3-(trifluoromethoxy)cyclobutyl]-1,3,4-oxadiazol-2-yl}bicyclo[2.2.2]octan-1-yl)acetamide], for which the EC50 lay within 10 to 50 nM.

On to `O=C(NC12CC(n3cc(-c4ccc(C(F)(F)F)cn4)cn3)(C1)C2)[C@H]1C[C@@H](O)c2cc(C(F)(F)F)c(F)cc2O1` [Compound 484, (2R,4R)-7-fluoro-4-hydroxy-6-(trifluoromethyl)-N-(3-{4-[5-(trifluoromethyl)pyridin-2-yl]-1H-pyrazol-1-yl}bicyclo[1.1.1]pentan-1-yl)-3,4-dihydro-2H-1-benzopyran-2-carboxamide], for which the EC50 is below 10 nM.

For the compound `O=C(NC12CC(n3cc(-c4ccn(CC(F)(F)F)c4)cn3)(C1)C2)[C@H]1C[C@@H](O)c2cc(Cl)ccc2O1` [Compound 547, (2R,4R)-6-chloro-4-hydroxy-N-(3-{4-[1-(2,2,2-trifluoroethyl)-1H-pyrrol-3-yl]-1H-pyrazol-1-yl}bicyclo[1.1.1]pentan-1-yl)-3,4-dihydro-2H-1-benzopyran-2-carboxamide], the EC50 was below 10 nM.

Usually EC50 stands for the concentration needed to bring the measured effect to its halfway point.
